# US9828338B2, “Carbamate derivatives of lactam based N-acylethanolamine acid amidase (NAAA) inhibitors” (The Regents of the University of California, priority 2013, dated 2017)
# Like-named read-outs stand apart in the source and are kept apart here.
# What was measured:
# Format in all cases: biochemical
# r-NAAA = molecular target: T1, r-NAAA (Rattus norvegicus, UniProt Q5KTC7); test: UPLC/MS r-NAAA assay
# T1 construct: Lysosomal NAAA protein preparation was obtained by homogenizing male Sprague-Dawley rat lungs; tissue Charles River (animals); host or cells: male Sprague-Dawley rat lung, soluble lysosomal fraction
# T1 sequence (Q5KTC7 34-362): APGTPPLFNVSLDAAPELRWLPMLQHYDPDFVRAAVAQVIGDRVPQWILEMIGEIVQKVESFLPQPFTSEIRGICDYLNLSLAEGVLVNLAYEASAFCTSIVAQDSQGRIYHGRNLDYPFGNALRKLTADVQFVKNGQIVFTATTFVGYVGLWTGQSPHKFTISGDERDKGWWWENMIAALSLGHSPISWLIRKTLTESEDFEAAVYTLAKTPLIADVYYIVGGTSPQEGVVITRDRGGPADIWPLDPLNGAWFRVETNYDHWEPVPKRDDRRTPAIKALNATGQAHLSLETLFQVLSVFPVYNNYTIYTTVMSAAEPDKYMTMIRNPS
# Description: Lysosomal NAAA protein preparation was obtained by homogenizing male Sprague-Dawley rat lungs (Charles River) in 20 mM Tris-HCl buffer pH 7.4 containing 0.32M sucrose. […] Supernatants were then centrifuged at 12,000 xg for 30 min at 4° C. Pellets were then resuspended in PBS pH 7.4 and subjected to a freeze/thaw cycle at −80° C. The suspension was finally centrifuged at 105,000×g for 1 h at 4° C. The supernatant was then used in the enzymatic assay.
# NAAA protein preparation was pre-incubated with various concentrations of test compounds or vehicle control in 100 mM NaH2PO4/Citrate buffer, 1% Triton-X, 3 mM DTT (pH 4.5) for 30 min at 37° C. Samples were then incubated with heptadecenoylethanolamide (50 μM, Avanti Polar Lipids) at 37° C. for 30 min. The reaction was terminated by addition of cold methanol containing heptadecanoic acid (NuCheck Prep) as internal standard. Samples were then analyzed by UPLC/MS (Acquity, Waters). […] The column temperature was 40° C. Electrospray ionization was in the negative mode, capillary voltage was 0.5 kV, cone voltage was […], desolvation temperature was 500° C. N2 was used as drying gas at a flow rate of 1000 L/hour and a temperature of 500° C. […] Calibration curves were generated using commercial heptadecenoic acid (NuCheck Prep) Inhibition of NAAA activity was calculated as reduction of heptadecenoic acid in the samples compared to vehicle controls. IC50 values were calculated by non-linear regression analysis of log [concentration]/inhibition curves using GraphPad Prism 5 (GraphPad Software Inc., CA—USA) applying a standard slope curve fitting.
# human NAAA = molecular target: T2, human NAAA (Homo sapiens, UniProt Q02083); test: Fluorogenic h-NAAA assay
# T2 construct: made in house; host or cells: HEK293 cells, stably transfected; soluble lysosomal fraction used as enzyme source
# T2 sequence (Q02083 29-359): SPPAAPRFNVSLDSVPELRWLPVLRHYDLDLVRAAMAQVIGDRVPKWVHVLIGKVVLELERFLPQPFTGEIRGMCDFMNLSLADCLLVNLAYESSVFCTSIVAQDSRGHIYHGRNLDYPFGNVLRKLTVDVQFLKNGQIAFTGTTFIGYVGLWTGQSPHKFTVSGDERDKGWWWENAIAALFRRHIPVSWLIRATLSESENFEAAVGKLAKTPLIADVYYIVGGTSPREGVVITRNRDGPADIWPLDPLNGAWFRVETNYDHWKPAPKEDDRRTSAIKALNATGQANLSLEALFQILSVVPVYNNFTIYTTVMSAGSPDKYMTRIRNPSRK
# Description: Hek293 cells stably transfected with the human NAAA coding sequence cloned from a human spleen cDNA library were used as enzyme source. Recombinant HEK-hNAAA pellets were resuspended in homogenizing buffer, and sonicated. Samples were centrifuged at 800×g for 15 min at 4° C. and the resultant supernatants were then ultracentrifuged at 12,000×g for 30 min at 4° C. The pellets were resuspended in PBS pH 7.4 on ice and subjected to a freeze/thaw cycle at −80° C. The suspension was finally centrifuged at 105,000×g for 1 h at 4° C. Protein concentration was measured and samples aliquoted and stored at −80° C. until use.
# The assay was run in Optiplate 96-wells black plates, in a total reaction volume of 200 μL. NAAA protein preparation (4.0 μg) was pre-incubated for 10 min with various concentrations of test compounds or vehicle control (5% DMSO) in 100 mM citrate/phosphate buffer (pH 4.5) containing 3.0 mM DTT, 0.1% Triton X-100, 0.05% BSA, 150 mM NaCl. N-(4-methyl-2-oxo-chromen-7-yl)-hexadecanamide was used as a substrate (5.0 μM) and the reaction carried over for 30 min at 37° C. The samples were then read in a Perkin Elmer Envision plate reader using an excitation wavelength of 360 nm and emission 460 nm. IC50 values were calculated by non-linear regression analysis of log [concentration]/inhibition curves using GraphPad Prism 5 (GraphPad Software Inc., CA—USA) applying a standard slope curve fitting.
# Rat AC (r-AC) = molecular target: T3, Rat AC (r-AC) (Rattus norvegicus, UniProt Q6P7S1); test: Rat AC (r-AC) assay; conditions: for IC50: read-out: r-AC UPLC/MS assay IC50
# T3 construct: V5 (C); His (C); made in house; host or cells: HEK293 cells transfected with pEF6-rAC-V5/His, G418 selected; soluble lysosomal fraction
# T3 sequence (Q6P7S1 21-394): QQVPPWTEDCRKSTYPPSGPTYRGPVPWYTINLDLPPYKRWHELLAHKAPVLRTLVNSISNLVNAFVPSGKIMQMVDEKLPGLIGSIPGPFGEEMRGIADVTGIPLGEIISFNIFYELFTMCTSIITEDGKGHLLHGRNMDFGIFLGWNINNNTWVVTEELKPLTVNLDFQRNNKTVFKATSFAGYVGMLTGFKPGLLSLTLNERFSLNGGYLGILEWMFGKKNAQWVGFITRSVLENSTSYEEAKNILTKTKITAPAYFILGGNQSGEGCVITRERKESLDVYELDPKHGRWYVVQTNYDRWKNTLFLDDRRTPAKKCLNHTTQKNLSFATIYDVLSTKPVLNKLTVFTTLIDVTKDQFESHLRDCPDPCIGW
# Description: The selectivity of selected compounds versus Acid Ceramidase (AC) was determined.
# Rat AC (r-AC) was cloned from a brain cDNA library using primers based on the sequence obtained from the National Center for Biotechnology Information (NCBI) database: 5′rAC (5′-[…]-3′) (SEQ ID NO:1) and 3′rAC (5′-[…]-3′) (SEQ ID NO:2). The PCR (High Fidelity PCR Master, Roche) product was subcloned into a pEF6-V5/His vector (Invitrogen) to construct a mammalian expression vector encoding V5/His-tagged rat AC. HEK293 cells were transfected with pEF6-rAC-V5/His using Super-Fect reagent (Qiagen) and screened with G418 (0.3 mg/mL). Cells were suspended in 20 mM Tris HCl (pH 7.5) containing 0.32M sucrose, sonicated and centrifuged at 800×g for 15 minutes at 4° C. The supernatants were centrifuged again at 12,000×g for 30 minutes at 4° C. The pellets were suspended in phosphate-buffered saline (PBS) and subjected to 2 freeze-thaw cycles at −80° C. The suspensions were centrifuged at 105,000×g for 1 hour at 4° C. The supernatants containing recombinant AC were kept at −80° C. until use. Protein concentration was measured using the bicinchoninic acid (BCA) assay (Pierce). Recombinant rat AC (50 μg) was preincubated with inhibitors (final DMSO concentration 1%) in assay buffer (100 mM sodium phosphate, 0.1% Nonidet P-40, 150 mM NaCl, 3 mM DTT, 100 mM sodium citrate, pH 4.5) for 30 minutes at 37° C. Reactions were started by the addition of 100 μM N-lauroyl ceramide (Nu-Chek Prep, Elysian, Minn.) and carried on for 30 minutes at 37° C. Reactions were stopped by addition of a mixture of chloroform/methanol (2:1, vol/vol) containing 1 nmol of heptadecanoic acid (HDA; NuChek Prep). The organic phases were collected, dried under N2, and analyzed by LC-MS in the negative-ion mode using […] (HDA) as internal standard (m/z=199 for lauric acid, m/z=269 for HDA). […]. The column temperature was 50° C. Electrospray ionization (ESI) was in the negative mode, capillary voltage as 4 kV, and fragmentor voltage was 100 V. N2 was used as drying gas at a flow rate of 13 L/min and a temperature of 350° C. Nebulizer pressure was set at 60 psi. We monitored [M-H]− in the selected-ion monitoring (SIM) mode using HDA as internal standard. Calibration curves were generated using commercial lauric acid (Nu-Chek Prep; m/z=199).
Structure (SMILES),IC50 (r-NAAA),IC50 (human NAAA),also measured
"O=C(N[C@H]1CNC1=O)OCc1ccc(C23CC4CC(CC(C4)C2)C3)cc1 [Example 58, [4-(1-Adamantyl)-phenyl]-methyl-N-[(3S)-2-oxoazetidin-3-yl]-carbamate]",2700 nM,2100 nM,
"O=C(N[C@H]1CNC1=O)OCc1ccc(C(=O)c2ccccc2)cc1 [Example 52, (4-Benzoylphenyl)-methyl-N-[(3S)-2-oxoazetidin-3-yl]-carbamate]",420 nM,639 nM,
"O=C(N[C@H]1CNC1=O)OCc1ccc(-c2ccccc2)cc1 [Example 17, (4-Phenylphenyl)-methyl-N-[(3S)-2-oxoazetidin-3-yl]-carbamate]",310 nM,,IC50 (Rat AC (r-AC)): 20100 nM
"CCCCCCCOC(=O)N[C@H]1CNC1=O [Example 1, Heptyl-N-[(3S)-2-oxoazetidin-3-yl]-carbamate]",700 nM,,"inhibition at 1 µM (Rat AC (r-AC); @ 1 μM, read-out: r-AC UPLC/MS assay % inhib.): 37%"
"C[C@H]1NC(=O)[C@H]1NC(=O)OCCCCC1CCCCC1 [Example 76, 4-Cyclohexylbutyl-N-[(2R,3S)-2-methyl-4-oxo-azetidin-3-yl]-carbamate]",87000 nM,,"inhibition at 10 µM (Rat AC (r-AC); @ 10 μM, read-out: r-AC UPLC/MS assay % inhib.): 5%"
"CCCCC1CCC(OC(=O)N[C@H]2CNC2=O)CC1 (mixture of isomers) [Example 61, (1s,4R) and (1r,4S)-(4-Butylcyclohexyl)-N-[(3S)-2-oxoazetidin-3-yl]-carbamate]",700 nM,323 nM,
"O=C(N[C@H]1CNC1=O)OCCCCc1ccccc1 [Example 13, 4-Phenylbutyl-N-[(3S)-2-oxoazetidin-3-yl]-carbamate]",2430 nM,930 nM,
"CCCCOc1ccc(COC(=O)N[C@H]2CNC2=O)cc1 [Example 63, (4-Butoxyphenyl)-methyl-N-[(3S)-2-oxoazetidin-3-yl]-carbamate]",240 nM,104 nM,
"C[C@@H]1NC(=O)[C@H]1NC(=O)OCc1ccc(-c2ccccc2)cc1 [Example 73, (4-Phenylphenyl)-methyl-N-[(2S,3S)-2-methyl-4-oxo-azetidin-3-yl]-carbamate]",900 nM,,inhibition at 10 µM (Rat AC (r-AC); read-out: r-AC UPLC/MS assay % inhib.): 20%
"COc1ccc(CCCCOC(=O)N[C@H]2CNC2=O)cc1 [Example 22, 4-(4-Methoxyphenyl)-butyl-N-[(3S)-2-oxoazetidin-3-yl]-carbamate]",790 nM,573 nM,
"O=C(N[C@H]1CNC1=O)OCc1ccc(I)cc1 [Example 101, (4-Iodophenyl)-methyl-N-[(3S)-2-oxoazetidin-3-yl]-carbamate]",,,"inhibition at […] (human NAAA; @ 2.5 μM, read-out: h-NAAA Fluorogenic assay % inhib.): 95%"

# Second part, led by results:
IC50 (r-NAAA),IC50 (human NAAA),Structure (SMILES),also measured
55 nM,25 nM,"CCCCCCCCCCOC(=O)N[C@H]1CNC1=O [Example 30, Decyl-N-[(3S)-2-oxoazetidin-3-yl]-carbamate]",
250 nM,76 nM,"CCCCC/C=C\CCOC(=O)N[C@H]1CNC1=O [Example 10, [(Z)-Non-3-enyl]-N-[(3S)-2-oxoazetidin-3-yl]-carbamate]",
40 nM,17 nM,"CCCCCCCCCOC(=O)N[C@H]1CNC1=O [Example 25, Nonyl-N-[(3S)-2-oxoazetidin-3-yl]-carbamate]",
220 nM,97 nM,"O=C(N[C@H]1CNC1=O)OCCCC1CCCC1 [Example 21, 3-Cyclopentylpropyl-N-[(3S)-2-oxoazetidin-3-yl]-carbamate]",
180 nM,78 nM,"CCCCC/C=C/CCOC(=O)N[C@H]1CNC1=O [Example 9, [(E)-Non-3-enyl]-N-[(3S)-2-oxoazetidin-3-yl]-carbamate]",
28 nM,,"O=C(N[C@H]1CNC1=O)OCc1ccc(C2CCCCC2)cc1 [Example 31, (4-Cyclohexylphenyl)-methyl-N-[(3S)-2-oxoazetidin-3-yl]-carbamate]",IC50 (Rat AC (r-AC)): 21700 nM
16 nM,39 nM,"O=C(N[C@H]1CNC1=O)OCc1ccc(C2CC3CCC2C3)cc1 (mixture of isomers) [Example 56, [4-(1R,2R,4S)- and (1S,2S,4R)-Norbornan-2-yl-phenyl)]-methyl-N-[(3S)-2-oxoazetidin-3-yl]-carbamate]",
300 nM,230 nM,"O=C(N[C@H]1CNC1=O)OCc1ccc(Cc2ccccc2)cc1 [Example 34, (4-Benzylphenyl)-methyl-N-[(3S)-2-oxoazetidin-3-yl]-carbamate]",
